Test [1] deals with T1, Glucose-dependent insulinotropic receptor (Rattus norvegicus, UniProt Q7TQN8).
T1 sequence (Q7TQN8 whole entry): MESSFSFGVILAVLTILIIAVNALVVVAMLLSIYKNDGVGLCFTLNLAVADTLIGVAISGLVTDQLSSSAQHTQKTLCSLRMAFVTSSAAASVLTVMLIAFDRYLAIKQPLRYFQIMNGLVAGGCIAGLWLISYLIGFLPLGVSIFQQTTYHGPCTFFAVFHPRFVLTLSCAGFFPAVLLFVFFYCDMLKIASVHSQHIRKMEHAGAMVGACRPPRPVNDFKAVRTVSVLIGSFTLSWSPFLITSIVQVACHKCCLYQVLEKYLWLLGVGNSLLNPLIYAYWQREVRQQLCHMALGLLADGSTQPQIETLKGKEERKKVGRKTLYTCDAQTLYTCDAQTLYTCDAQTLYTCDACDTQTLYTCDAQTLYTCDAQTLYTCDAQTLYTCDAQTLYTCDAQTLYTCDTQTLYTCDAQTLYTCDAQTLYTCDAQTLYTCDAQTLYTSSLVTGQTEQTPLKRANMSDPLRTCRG
The test is described as follows: […] of rat GPR119 activity by homogeneous time resolved fluorescence cyclase (cAMP) assay. The class given is functional.

Test [2] has as its target T2, Glucose-dependent insulinotropic receptor (Rattus norvegicus) (UniProt Q7TQN8).
T2 sequence (whole entry): T1 sequence (Q7TQN8 whole entry)
Put plainly: […] of rat GPR119 activity by homogeneous time resolved fluorescence cyclase (cAMP) assay relative to AR231453. The class given is functional.

The target of test [3] is T3, Glucose-dependent insulinotropic receptor (Homo sapiens, UniProt Q8TDV5).
T3 sequence (Q8TDV5 whole entry): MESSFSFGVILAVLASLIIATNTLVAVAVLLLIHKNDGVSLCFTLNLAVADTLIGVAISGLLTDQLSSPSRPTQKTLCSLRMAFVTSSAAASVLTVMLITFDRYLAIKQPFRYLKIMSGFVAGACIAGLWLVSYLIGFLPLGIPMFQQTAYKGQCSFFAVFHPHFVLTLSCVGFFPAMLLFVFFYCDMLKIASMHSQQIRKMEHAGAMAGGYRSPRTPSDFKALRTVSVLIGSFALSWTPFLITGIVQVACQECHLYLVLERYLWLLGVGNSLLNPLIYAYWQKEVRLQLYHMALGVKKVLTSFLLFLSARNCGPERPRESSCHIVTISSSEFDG
Put plainly: […] of human GPR119 activity by homogeneous time resolved fluorescence cyclase (cAMP) assay. The class given is functional.

Test [4] addresses T4, Glucose-dependent insulinotropic receptor (Homo sapiens) (UniProt Q8TDV5).
T4 sequence (whole entry): T3 sequence (Q8TDV5 whole entry)
The test is described as follows: […] of human GPR119 activity by homogeneous time resolved fluorescence cyclase (cAMP) assay relative to AR231453. The test is classed as functional.

The next test has as its target Cytochrome P450 2C9 (Homo sapiens, UniProt P11712). Put plainly: Inhibition of CYP2C9 (unknown origin). The class given is ADME.

Where only a bound is given, the exact number is not on record here.

Chain of Cytochrome P450 2C9 (P11712 whole entry): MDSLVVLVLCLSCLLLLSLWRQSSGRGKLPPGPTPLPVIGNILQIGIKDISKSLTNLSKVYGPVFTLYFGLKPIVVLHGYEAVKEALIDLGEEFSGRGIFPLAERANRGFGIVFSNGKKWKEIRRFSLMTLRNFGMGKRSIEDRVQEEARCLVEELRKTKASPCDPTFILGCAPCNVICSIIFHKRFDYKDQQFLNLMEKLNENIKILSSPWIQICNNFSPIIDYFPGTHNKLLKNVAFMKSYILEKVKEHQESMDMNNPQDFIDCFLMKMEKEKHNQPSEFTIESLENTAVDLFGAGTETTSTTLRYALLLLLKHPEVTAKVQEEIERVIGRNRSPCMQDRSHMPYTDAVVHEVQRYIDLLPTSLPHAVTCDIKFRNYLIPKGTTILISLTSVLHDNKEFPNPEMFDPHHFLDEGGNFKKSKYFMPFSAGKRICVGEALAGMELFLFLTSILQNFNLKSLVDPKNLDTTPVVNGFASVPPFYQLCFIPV

What is called EC50 is the concentration giving half of the maximal effect. For the compound `CCc1cnc(C(=O)N2CCC(Oc3ncnc(Oc4ccc(S(C)(=O)=O)nc4C)c3F)CC2)nc1`, the EC50 in test [1] came out at 40.8 nM; in test [3], 4.7 nM. Also, the Efficacy in test [2] was 80%; in test [4], 99%.

On to `Cc1nc(S(C)(=O)=O)ccc1Oc1ncnc(OC2CCN(C(=S)OC3(C)CC3)CC2)c1F`, for which the EC50 in test [1] is 48.8 nM. Besides, in test [2], the Efficacy was 49%.

On to `Cc1nc(S(C)(=O)=O)ccc1Oc1ncnc(OC2CCN(C(=O)OC(C)(C)C)CC2)c1F`, for which the 50% effective concentration (EC50) in test [1] turned out to be 49.6 nM; in test [3] it was 7.91 nM. Also, the results for the Efficacy in test [2] and in test [4] were 97% and 81%, respectively.

What is called IC50 is the midpoint of a concentration-inhibition curve. Low values mean inhibition by little substance, high ones a need for much substance. As to `Cc1nc(S(C)(=O)=O)ccc1Nc1ncnc(OC2CCN(C(=O)OC(C)C)CC2)c1F`, the EC50 in test [1] turned out to be 265 nM; in test [3], 132 nM. The Efficacy worked out at 85% in test [2] and 77% in test [4]. This compound also yielded an IC50 at Cytochrome P450 2C9 of 5500 nM.

In test [3], `Cc1nc(S(C)(=O)=O)ccc1Oc1ncnc(OC2CCN(C(=O)C3(C)CC3)CC2)c1F` gave an EC50 of 761 nM. For the same compound, the Efficacy in test [4] stood at 72%.

For the compound `Cc1nc(S(C)(=O)=O)ccc1Oc1ncnc(OC2CCN(C(=O)SC3CCC3)CC2)c1F`, the EC50 worked out at 77.4 nM in test [1] and 8.51 nM in test [3]. Besides, the Efficacy in test [2] is 81%; in test [4], 94%.

`Cc1nc(S(C)(=O)=O)ccc1Oc1ncnc(OC2CCN(C(=O)OC(C)(C)CF)CC2)c1F`: the figures for the EC50 in test [1] and in test [3] were 138 nM and 19.9 nM, respectively. The results for the Efficacy in test [2] and in test [4] were 95% and 74%, respectively.

Consider `COc1c(Nc2ccc(S(C)(=O)=O)nc2C)ncnc1OC1CCN(C(=O)OC(C)C)CC1` [ADP-597], for which the Efficacy in test [2] was 89%; in test [4], 75%. Further, the IC50 on Cytochrome P450 2C9 was 5800 nM.

Turning to `Cc1nc(S(C)(=O)=O)ccc1Oc1ncnc(OC2CCN(C(=O)C(C)(C)F)CC2)c1F`, the EC50 in test [1] turned out to be 296 nM; in test [3], 76.3 nM. Moreover, the Efficacy in test [2] is 74%; in test [4], 66%.

On to `Cc1nc(S(C)(=O)=O)ccc1Oc1ncnc(OC2CCN(C(=O)SC3(C)CC3)CC2)c1F`, for which the EC50 in test [1] came to 166 nM; in test [3], 13.2 nM. Further, the Efficacy was 77% in test [2] and 93% in test [4].

For `Cc1nc(S(C)(=O)=O)ccc1Oc1ncnc(OC2CCN(C(=O)c3nc(C(C)(C)F)no3)CC2)c1F`, the results for the EC50 in test [1] and in test [3] were 606 nM and 43.4 nM, respectively. Also, the Efficacy in test [2] was found to be 84%; in test [4] it was 74%.

With `Cc1nc(S(C)(=O)=O)ccc1Oc1ncnc(OC2CCN(C(=O)OC(C)(C)C(F)(F)F)CC2)c1F`, the EC50 amounted to 47.2 nM in test [1] and 6.53 nM in test [3]. Moreover, the results for the Efficacy in test [2] and in test [4] were 79% and 36%, respectively.

For the compound `Cc1nc(S(C)(=O)=O)ccc1Oc1ncnc(OC2CCN(C(=O)O[C@H](C)CF)CC2)c1F`, the EC50 amounted to 1520 nM in test [1] and 196 nM in test [3]. The figures for the Efficacy in test [2] and in test [4] were 79% and 59%, respectively.

In the case of `CCC1(OC(=O)N2CCC(Oc3ncnc(Oc4ccc(S(C)(=O)=O)nc4C)c3F)CC2)CC1`, the EC50 in test [1] is 333 nM; in test [3] it was 22 nM. For the same compound, the Efficacy came out at 83% in test [2] and 65% in test [4].

Consider `Cc1nc(S(C)(=O)=O)ccc1Oc1ncnc(OC2CCN(C(=O)C3(F)CCC3)CC2)c1F`, for which the EC50 in test [1] worked out at 123 nM; in test [3], 24.7 nM. Besides, the Efficacy was 91% in test [2] and 99% in test [4].

Take `Cc1nc(S(C)(=O)=O)ccc1Oc1ncnc(OC2CCN(C(=O)OC(C)C)CC2)c1F`: the EC50 in test [1] is 142 nM; in test [3], 21 nM. The Efficacy turned out to be 77% in test [2] and 75% in test [4]. Besides, on Cytochrome P450 2C9, the IC50 is greater than 50000 nM.

In the case of `Cc1nc(S(C)(=O)=O)ccc1Oc1ncnc(OC2CCN(C(=O)SC3CC3)CC2)c1F`, the EC50 came to 126 nM in test [1] and 24.9 nM in test [3]. For the same compound, the Efficacy is 80% in test [2] and 103% in test [4].

`Cc1nc(S(C)(=O)=O)ccc1Oc1ncnc(OC2CCN(C(=O)OC3CCC3)CC2)c1F`: the figures for the EC50 in test [1] and in test [3] were 167 nM and 13.6 nM, respectively. In addition, the Efficacy in test [2] turned out to be 81%; in test [4] it was 65%.

On to `Cc1nc(S(C)(=O)=O)ccc1Oc1ncnc(OC2CCN(C(=O)OC3(C(F)(F)F)COC3)CC2)c1F`, for which the EC50 in test [1] was 342 nM; in test [3], 29.3 nM. In addition, the figures for the Efficacy in test [2] and in test [4] were 84% and 66%, respectively.

On to `Cc1nc(S(C)(=O)=O)ccc1Oc1ncnc(OC2CCN(C(=O)SC(C)(C)C)CC2)c1F`, for which the EC50 in test [1] is 30.7 nM; in test [3] it was 4.83 nM. For the same compound, the Efficacy in test [2] turned out to be 76%; in test [4], 87%.

As to `Cc1nc(S(C)(=O)=O)ccc1Oc1ncnc(OC2CCN(C(=O)OC3(C(F)(F)F)CCC3)CC2)c1F`, the EC50 stood at 63.3 nM in test [1] and 14.3 nM in test [3]. Besides, the Efficacy in test [2] stood at 82%; in test [4], 38%.

Regarding `Cc1nc(S(C)(=O)=O)ccc1Oc1ncnc(OC2CCN(C(=O)O[C@@H](C)C(F)(F)F)CC2)c1F`, the EC50 turned out to be 109 nM in test [1] and 9.86 nM in test [3]. In addition, the figures for the Efficacy in test [2] and in test [4] were 80% and 78%, respectively.

On to `Cc1nc(S(C)(=O)=O)ccc1Oc1ncnc(OC2CCN(C(=O)O[C@H](C)C(F)(F)F)CC2)c1F`, for which the EC50 amounted to 110 nM in test [1] and 9.2 nM in test [3]. In addition, the Efficacy in test [2] came out at 85%; in test [4] it was 56%.

As for `Cc1nc(S(C)(=O)=O)ccc1Oc1ncnc(OC2CCN(C(=O)O[C@@H](C)CF)CC2)c1F`, the EC50 in test [1] came out at 1680 nM; in test [3] it was 186 nM. Moreover, the Efficacy in test [2] is 84%; in test [4], 72%.

As to `Cc1nc(S(C)(=O)=O)ccc1Oc1ncnc(OC2CCN(C(=O)OC(C)(C)C#N)CC2)c1F`, the EC50 was found to be 1320 nM in test [1] and 92.9 nM in test [3]. The results for the Efficacy in test [2] and in test [4] were 97% and 90%, respectively.

With `Cc1nc(S(C)(=O)=O)ccc1Oc1ncnc(OC2CCN(C(=O)C3CCCC3)CC2)c1F`, the EC50 in test [1] came out at 407 nM; in test [3] it was 72.8 nM. For the same compound, the Efficacy in test [2] amounted to 83%; in test [4], 87%.

On to `Cc1nc(S(C)(=O)=O)ccc1Oc1ncnc(OC2CCN(C(=O)c3ncc(Cl)cn3)CC2)c1F`, for which the figures for the EC50 in test [1] and in test [3] were 30.9 nM and 6.12 nM, respectively. In addition, the Efficacy in test [2] was 77%; in test [4], 83%.

As to `Cc1nc(S(C)(=O)=O)ccc1Oc1ncnc(OC2CCN(C(=O)c3noc(C(C)(C)F)n3)CC2)c1F`, the EC50 in test [1] stood at 103 nM; in test [3], 14 nM. Besides, the values for the Efficacy in test [2] and in test [4] were 74% and 69%, respectively.

Turning to `Cc1nc(S(C)(=O)=O)ccc1Oc1ncnc(OC2CCN(C(=O)c3noc(C(C)C)n3)CC2)c1F`, the concentration giving a half-maximal response (EC50) stood at 176 nM in test [1] and 21.2 nM in test [3]. Besides, the Efficacy in test [2] turned out to be 81%; in test [4] it was 72%.

Consider `Cc1nc(S(C)(=O)=O)ccc1Oc1ncnc(OC2CCN(C(=O)OC3COC3)CC2)c1F`, for which the EC50 in test [1] came to 2500 nM; in test [3], 326 nM. For the same compound, the Efficacy in test [2] is 66%; in test [4], 58%.

As to `CCC(F)(F)C(=O)N1CCC(Oc2ncnc(Oc3ccc(S(C)(=O)=O)nc3C)c2F)CC1`, the values for the 50% effective concentration (EC50) in test [1] and in test [3] were 69.2 nM and 17.4 nM, respectively. Also, the Efficacy in test [2] came out at 90%; in test [4] it was 85%.

Take `Cc1nc(S(C)(=O)=O)ccc1Oc1ncnc(OC2CCN(C(=O)C(F)(F)F)CC2)c1F`: the EC50 in test [1] was determined as 880 nM; in test [3] it was 151 nM. For the same compound, the Efficacy in test [2] was found to be 76%; in test [4], 52%.

In the case of `Cc1nc(S(C)(=O)=O)ccc1Oc1ncnc(OC2CCN(C(=O)C(C)(F)F)CC2)c1F`, the EC50 in test [1] amounted to 239 nM; in test [3], 37 nM. In addition, the Efficacy in test [2] was 87%; in test [4], 76%.

Consider `Cc1nc(S(C)(=O)=O)ccc1Oc1ncnc(OC2CCN(C(=S)OC(C)C)CC2)c1F`, for which the EC50 came to 1050 nM in test [1] and 69.9 nM in test [3]. Also, the Efficacy in test [2] is 47%; in test [4] it was -32%.

As for `Cc1nc(S(C)(=O)=O)ccc1Oc1ncnc(OC2CCN(C(=O)SC(C)C)CC2)c1F`, the EC50 stood at 41.3 nM in test [1] and 6.8 nM in test [3]. For the same compound, the Efficacy in test [2] turned out to be 81%; in test [4], 95%.

The record behind these values is ChEMBL document CHEMBL3352461, “Discovery and optimization of 5-fluoro-4,6-dialkoxypyrimidine GPR119 agonists” (Bioorg Med Chem Lett, 2014).
